Measured values reported in article PMC9230136 (Pharmaceutics, 2022).
“Also recorded” adds a separate entry of the source.

Key:
[1] = tested on: HeLa cells; experiment: Mitochondrial membrane potential (JC-1); format: cell-based, human; settings: Figure 8A representative plot; concentration not given
Description: The mitochondrial potential was evaluated in HeLa cells by flow cytometry using the cell membrane permeable cationic dye 5,5′,6,6′-tetrachloro-1,1′,3,3′-tetraethyl-imidacarbocyanine iodide (JC-1) (Molecular Probes) as described previously. The production of ROS was measured in HeLa cells by flow cytometry using 2′,7′-dichlorodihydrofluorescein diacetate (H2DCFDA) (Molecular Probes) as described previously.

[2] = tested on: A549, MDA-MB-231, HeLa, HT-29 and Jurkat cancer cell lines; experiment: Antiproliferative activity over the panel of cancer cell lines; format: cell-based, human; settings: mean over the five cancer cell lines; read-out: mean IC50 (antiproliferative activity)
In short: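 HT-29 cells were cultured in RPMI-1640, while MDA-MB-231, A549 and HeLa were cultured in DMEM, both with 10% FBS. Cells were treated 24 h after seeding with 5-fold serial dilutions starting at 10 μM, in triplicate, and incubated for 72 h at 37 °C. Resazurin fluorescence was read at ex 535/em 600 nm.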

[3] = tested on: HeLa cells; experiment: Western blot of cellular protein expression; format: cell-based, human; settings: 24 h
Description: Following growth for various times in the presence of 8q, HeLa cells were harvested by centrifugation and washed twice in 0 °C PBS. Cells were lysed with 0.1% (v/v) Triton X-100 containing RNase A at 0 °C, and supernatants were obtained by centrifuging the lysed cells at 15,000× g for 10 min at 4 °C. The protein content of the solutions was measured, and 10 μg of protein from each sample was subjected to sodium dodecyl sulfate polyacrylamide gel electrophoresis. Proteins were transferred by electroblotting to a poly(vinylidene difluoride) Hybond-P membrane from GE Healthcare. Membranes were treated with 5% bovine serum albumin in PBS containing 0.1% Tween 20 overnight at 4 °C. The membranes were then exposed for 2 h at room temperature to primary antibodies directed against cyclin B cdc25c, cdc2 (Y15), BCL-2, cleaved poly (ADP-ribose) polymerase (PARP), MCL-1, XIAP and vinculin (all from Cell Signaling), and subsequently for 1 h to peroxidase-labeled secondary antibodies. The membranes were visualized using ECL select (GE Healthcare), and images were acquired using a Uvitec-Alliance imaging system. Densitometric analysis of Western blots was performed by ImageJ software and the results were normalized to β-actin and represented as fold change with respect to untreated controls.

[4] = tested on: HeLa cells; experiment: Cell cycle analysis (PI, flow cytometry); format: cell-based, human; settings: 50 nM, 24 h
Description: HeLa cells were seeded at 100,000 cells per well on 6-well tissue culture plates. After 24 h, cells were treated with different test compound concentrations or DMSO for another 24 h. Cells were then fixed and stained with propidium iodide (PI). The fluorescence intensity of 10,000 single-cell events was measured with a Beckman Coulter Cytomics FC500 instrument (Beckman Coulter Italia, Milano, Italy) and the data were analyzed with MultiCycle for Windows software from Phoenix Flow Systems (San Diego, CA, USA).

[5] = tested on: HeLa cells; experiment: Immunofluorescence labeling of microtubules; format: cell-based, human; settings: 10 nM, 24 h
Description: HeLa cells were seeded at 15,000 cells/well in a NuncTM Lab-Tek 8-well Chamber SlideTM System (Thermo Fisher Scientific) and incubated under cell culture conditions for 24 h. The cells were treated with various concentrations of compounds or solvent (DMSO as control) and incubated for another 24 h.
After the pharmacological treatment, cells were rinsed with PBS and fixed with 200 μL of 4% paraformaldehyde in PBS for 15 min at room temperature. Cells were then washed twice with PBS 1X before proceeding with permeabilization and protein saturation using a blocking buffer containing 3% bovine serum albumin and 0.1% Triton X-100. Cells were maintained in the blocking buffer for 30 min at room temperature before performing immunostaining of microtubules. Cells were incubated with a murine monoclonal anti-β tubulin antibody (Sigma-Aldrich, Milano, Italy) overnight at 4 °C.
After three washes with PBS 1X, cells were incubated for 1 h at room temperature in the dark with a secondary antibody conjugated to Alexa FluorTM 488 (Invitrogen, Thermo Fisher Scientific, Waltham, MA, USA)). […]
Alterations in the microtubule cytoskeleton were documented by fluorescence microscopy using a Zeiss LSM 800 with Airyscan Confocal Spectral microscope (100× magnification) (New York, NY, USA). […]

[6] = tested on: Zebrafish embryos; experiment: Acute toxicity assessment in zebrafish embryos; format: in vivo, Danio rerio; settings: for Results (toxicity evaluation) / % Alterations 24 h / % Lethality 24 h / % Alterations 48 h / % Lethality 48 h: 72 hpf embryos
Description: Zebrafish embryos at 72 h post fertilization (hpf) were selected for the acute toxicity assay since, at that time, morphogenesis and function of the primary organ systems are complete. Embryos at 72 hpf were assayed in a 12-well plate, 20 larvae/well for each experimental condition.
The zebrafish embryos were treated as described in the Biological Results and Discussion section using drug concentrations selected on the basis of in vitro experimental data. The drugs were added directly to the fish water from 10 mM stock solutions in DMSO of tested compounds. […] CA-4P was employed as the reference compound.
The experiment was carried out at a constant temperature (28.5 °C) in the dark, and at 24 and 48 h time points, zebrafish were subjected to visual observation and image acquisition under a stereomicroscope (Nikon SMZ745T; Nikon, Japan). The number of dead zebrafish embryos for each condition was recorded, and morphological defects were evaluated. The survival rate (%) after treatment was calculated.

## Cc1cc(Nc2ccc(F)cc2)n2nc(NCCCc3ccccc3)nc2n1 [Compound 8q]
[1]
  Monomers (%) (monomeric JC-1): 64.4%
[2]
  IC50: 83 nM
[3]; 50 nM
  BCL-2 and MCL-1 expression: partial reduction in BCL-2 and MCL-1 expression
  caspase-3 activation and PARP cleavage: appearance of the cleaved fragment of the executioner caspase-3 and the consequent cleavage of its substrate PARP
[3]
  ATR (Ser428) and CHK1 (S345) phosphorylation: appreciable increase in ATR phosphorylation (Ser428) and of its downstream target CHK1 (S345)
  cdc2 phosphorylation (Tyr15): significant reduction in cdc2 phosphorylation (Tyr15)
[4]
  cells arrested in G2/M: 80%
[5]
  microtubule network organization: microtubules were disorganized, and the cells developed a spherical morphology
[6]; 100 nM and 1 μM, 24 and 48 h
  death, morphologic changes, developmental abnormalities: no death and no morphologic changes or developmental abnormalities; also recorded: No abnormal phenotypes or developmental defects were seen
[6]; 100 nM
  Results (toxicity evaluation): Not toxic
  % Alterations 24 h: 0%
  % Lethality 24 h: 0%
  % Alterations 48 h: 0%
  % Lethality 48 h: 0%
[6]; 1 μM
  Results (toxicity evaluation): Not toxic
  % Alterations 24 h: 0%
  % Lethality 24 h: 0%
  % Alterations 48 h: 0%
  % Lethality 48 h: 0%
